Data published in patent US20240293420A1, “PHARMACEUTICAL COMPOSITION, PREPARATION, AND PREPARATION METHOD THEREFOR AND USE THEREOF” (WUHAN LL SCIENCE AND TECHNOLOGY DEVELOPMENT CO., LTD., priority 2021, published 2024).
Values after ≈ are worked out from the molar mass of the structure shown. “Also recorded” adds a separate entry of the source.

How the values were obtained:
[1] = Dynamic vapor sorption (DVS) test; format: physicochemical
[2] = Physical and chemical stability of crystal forms at 60° C. (closed) and 40° C./75% RH (open); format: physicochemical
Method: The physical and chemical stability of crystal forms I, III, and V at 60° C. (closed) and 40° C./75% RH (open) for 7 days were investigated respectively.
(closed) and 40° C./75% RH (open) for 3 months were investigated.

[3] = Solubility tests in biological media of SGF, FaSSIF and FeSSIF; format: physicochemical
Method: The instrument used for liquid chromatography analysis was Agilent HPLC 1260 series, and the analytical method is shown in the table below.
The results of solubility tests of crystal forms I, III, and V in biological media of SGF, FaSSIF, and FeSSF are as shown in Table E and FIG. 43. There was little difference in the solubility of the above three crystal forms in different biological media, and the solubility in SGF was higher than 5 mg/mL.

[4] = Variable humidity XRPD (VH-XRPD) of crystal form III; format: physicochemical
Source text: The instrument parameters are as follows:
The humidity change program settings are as follows: […]

[5] = Pharmacokinetic experiments in Beagles; format: in vivo; settings: Beagle, male, PO, 10 mg/kg, plasma
Method: The present disclosure preferred crystal forms I, III, and V of the compound in the above examples for pharmacokinetic experiments in Beagles, and the relevant experiments are as follows:
Animal: 9 Beagles, male, divided into three groups with 3 in each group, weight ranging from 10 to 13 kg (source & certificate number: Beijing Marshall Biotechnology Co., Ltd., No. 1103182011000161)
Administration mode and dosage: PO: 10 mg/kg
Preparation: 0.5% CMC-Na was used as the solvent, and 400 mg of each of the three different crystal forms of compound A were weighed and added to the corresponding 79 mL of solvent, respectively. The mixture was subjected to ultrasonication for 20 minutes, added with a stirrer, and mixed thoroughly for 3 hours (the storage period from compound preparation to animal administration at room temperature was less than 6 hours). After the drug solution became a homogeneous and fine suspension, which was observed by the naked eye, the solvent was gradually added until the specified volume reached the target concentration. The preparation was stirred for 10 minutes at room temperature before administration, and stirred continuously during administration.
Time points for sampling: the time points for blood sampling in the PO group were 0.167, 0.5, 1, 2, 4, 6, 8, and 24 hours.
Animals in the PO group were fasted overnight except for free access to water before administration, and resumed food supply 4 hours after administration.
After Beagles in the […] were administered, blood was collected from Beagles by jugular vein puncture according to the time points for sampling. About 1.0 mL of blood was collected at each time point and transferred to an anticoagulant EP tube (containing 10 μL of EDTA-K2, 375 mg/mL). The tube was gently inverted three times, stored in an ice box (no more than 30 minutes), and centrifuged at 3200 g for 10 minutes at 4° C. The plasma was transferred to an ultra-low temperature refrigerator and stored until detection.
Sample pretreatment process: 40 μL of sample was taken, and 160 μL of acetonitrile solution containing 0.1% FA and 200 ng/mL of mixed standard solution was added to precipitate the protein. The mixture was vortexed and mixed well, and the sample was centrifuged in a 4° C. centrifuge at 13000 pm for 10 minutes. 100 μL of the supernatant was transferred to another 96 deep well plate, then 100 μL of methanol:water (1:3, v:v) solution containing 0.1% FA was added thereto, and the mixture was shaken and mixed for 10 minutes.
• Ion source: ion electrospray (ESI) • Ionization mode: positive ion mode (Positive) • Detection mode (mode): multiple reaction monitoring (MRM) • Ion spray voltage: 5500 V • Ion spray temperature (turbo ion spray temp): 550° C. • Curtain gas type: nitrogen setting: 35 • Collision cell gas type (CAD gas type): nitrogen setting: medium • Nebulizing gas type (gas 1): nitrogen setting: 55.00 • Auxiliary gas type (gas 2): nitrogen setting: 55.00
• Chromatographic column: poroshell 120 EC-C18 (4.6×50 mm, 2.7 μm) • Mobile phase A: 0.1% formic acid aqueous solution • Mobile phase B: a solution of 0.1% formic acid in methanol • Auto sampler wash solution (rinse port wash solution): 50% methanol • Column temperature: 40° C. • Flow rate: 0.55 mL/min • Auto sampler temperature (sample tray temp): 10° C. • Injection volume: 3 μL • Lift of presser foot (needle stroke): 49 mm • Auto sampler rinse setting (rinse pump setting): rinse port only • Auto sampler rinse mode (rinse mode): before aspiration • Auto sampler rinse volume for needle (rinse volume): 500 μL • Dip time when rinsing the injection needle (rinse dip time): 2 seconds
The data would be analyzed using WinNonlin (version 5.2.1 Pharsight, Mountain View, CA) through a non-compartmental model to obtain PK parameters (selecting Cmax, Tmax, AUClast, T1/2, and other parameters according to different routes of administration).

[6] = Crystal form (XRPD) in preparation process of coated tablets; format: physicochemical; settings: samples at stages of wet granulation and tabletting; listed as API
Source text: In order to investigate the impact of the preparation process of the preparation on the crystal form, samples were taken at different stages during the preparation process of the coated tablets according to Example 17.3 and analyzed. The analysis results are shown in Table I. The summarized results of the XRPD patterns of the products at each time point for sampling are shown in FIG. 52.
The investigation results are shown in Table J. The XRPD results of the crystal form of the coated tablet, API, and the blank excipient are shown in FIG. 53.

[7] = Crystal form transformation under humidity / drying (XRPD); format: physicochemical; settings: humidity or drying as stated in the value
Source text: Crystal form I can be obtained by the preparation method in Example 3. […] (FIG. 29). Combined with the DVS test results (FIG. 30), it can be seen that the mutual transformation between crystal forms I and IV is reversible.
Crystal form IV is a hygroscopic product of crystal form I under high humidity environment, and can be obtained by slurrying crystal form I or crystal form V in a mixed solvent of water/acetone with a water content of 50% to 95%.
Crystal form VI was obtained by slurrying crystal form I or crystal form V at 60° C. in a mixed solvent of water/acetone with a water content of 10% (volume ratio) at 60° C.
Crystal form VIII is a hydrate, but the hydrate is unstable.

COC(=O)N1CCO[C@@H](Cc2c(-c3c(F)cc(S(N)(=O)=O)cc3F)nc3cc(Cl)ccn23)C1 [Crystal form III, methyl (S)-2-((7-chloro-2-(2,6-difluoro-4-sulfamoylphenyl)imidazo[1,2-a]pyridin-3-yl)methyl)morpholine-4-carboxylate]
DVS hygroscopicity [1]: slightly hygroscopic | XRPD before and after the DVS test [1]: no significant change in XRPD | DVS (wt %, 80% RH) ([1]; 25° C., 80% RH): 2.7 wt % | DVS (wt %, 90% RH) ([1]; 25° C., 90% RH): 2.8 wt % | adsorbed water content ([1]; range of 10 to 80% RH): about 1.2% | Purity - 7 days (peak area %) ([2]; 40° C./75% RH (open)): 99.35 peak area % | Purity - 1 month (peak area %) ([2]; 40° C./75% RH): 99.29 peak area % | Purity - 3 months (peak area %) ([2]; 40° C./75% RH): 99.23 peak area % | XRPD - 3 months ([2]; 40° C./75% RH): Crystal form III | Purity - 7 days (peak area %) ([2]; 60° C. (closed)): 99.35 peak area % | Purity - 1 month (peak area %) ([2]; 60° C.): 99.28 peak area % | Purity - 3 months (peak area %) ([2]; 60° C.): 99.25 peak area % | XRPD - 3 months ([2]; 60° C.): Crystal form III | Initial purity (peak area %) [2]: 99.34 peak area % | Initial purity (peak area %) ([2]; listed as crystal form III): 99.33 peak area % | XRPD of remaining solid ([3]; FaSSIF, 0.5 h): Unchanged | pH ([3]; FaSSIF, 0.5 h): 6.4 | XRPD of remaining solid ([3]; FaSSIF, 2 h): Unchanged | pH ([3]; FaSSIF, 2 h): 6.4 | XRPD of remaining solid ([3]; FaSSIF, 24 h): Unchanged | pH ([3]; FaSSIF, 24 h): 6.4 | XRPD of remaining solid ([3]; FeSSIF, 0.5 h): Unchanged | pH ([3]; FeSSIF, 0.5 h): 4.9 | Solubility ([3]; FeSSIF, 2 h): 88 µg/mL (≈ 176 µM) | XRPD of remaining solid ([3]; FeSSIF, 2 h): Unchanged | pH ([3]; FeSSIF, 2 h): 4.8 | Solubility ([3]; FeSSIF, 24 h): 120 µg/mL (≈ 240 µM) | XRPD of remaining solid ([3]; FeSSIF, 24 h): Unchanged | pH ([3]; FeSSIF, 24 h): 4.9 | pH ([3]; SGF, 0.5 h): 1.0 | solubility at 0.5 h ([3]; simulated gastric fluid, thermodynamic from solid, SGF, 0.5 h, visual observation): > 5000 µg/mL | crystal form at 0% RH ([4]; cycle of 40% RH-0% RH-40% RH at 25° C.): completely dehydrated at 0% RH and transformed into a new crystal form, anhydrous crystal form X | water content at which crystal form III is stable ([4]; from DVS at 40% RH and TGA): above 1.6% | XRPD results ([4]; procedure 6: 0% RH, 720 minutes): Anhydrous crystal form X | XRPD results ([4]; procedure 7: 0% RH, 900 minutes): Anhydrous crystal form X | XRPD results ([4]; procedure 10: 40% RH, 120 minutes): Crystal form III | XRPD results ([4]; procedure 11 (end): 40% RH, 240 minutes): Crystal form III | AUClast [5]: 14454 ± 3182 ng·h/mL | Cmax [5]: 1159 ± 160 ng/mL | T1/2 [5]: 12.9 ± 1.06 h | Tmax [5]: 2.00 ± 0.00 h | Crystal form in preparation process [6]: remained stable; also recorded: Crystal form III | crystal form transformation [7]: quickly absorbed moisture under ambient humidity and became crystal form III again
